Data on 21 compounds can be found in ChEMBL document CHEMBL5042477, “Potent Cyclic Peptide Inhibitors of FXIIa Discovered by mRNA Display with Genetic Code Reprogramming” (J Med Chem, 2021).

Where a SMILES comes first, the peptide text is derived from it. Bridges are numbered along the chain shown (N, C = ends). [ ]: non-standard residue; d: D form. Phe(2-CF3) = N[C@@H](Cc1ccccc1C(F)(F)F)C(=O)O; Phe(2-OMe) = COc1ccccc1C[C@H](N)C(=O)O; Phe(3-F) = N[C@@H](Cc1cccc(F)c1)C(=O)O; Phe(4-Me) = Cc1ccc(C[C@H](N)C(=O)O)cc1; 4Pal = N[C@@H](Cc1ccncc1)C(=O)O; Cha = N[C@@H](CC1CCCCC1)C(=O)O

What is called IC50 is the point on the concentration scale where inhibition reaches its midpoint.

The target of the test is T1, Coagulation factor XII (Homo sapiens, UniProt P00748).
T1 sequence (P00748 whole entry): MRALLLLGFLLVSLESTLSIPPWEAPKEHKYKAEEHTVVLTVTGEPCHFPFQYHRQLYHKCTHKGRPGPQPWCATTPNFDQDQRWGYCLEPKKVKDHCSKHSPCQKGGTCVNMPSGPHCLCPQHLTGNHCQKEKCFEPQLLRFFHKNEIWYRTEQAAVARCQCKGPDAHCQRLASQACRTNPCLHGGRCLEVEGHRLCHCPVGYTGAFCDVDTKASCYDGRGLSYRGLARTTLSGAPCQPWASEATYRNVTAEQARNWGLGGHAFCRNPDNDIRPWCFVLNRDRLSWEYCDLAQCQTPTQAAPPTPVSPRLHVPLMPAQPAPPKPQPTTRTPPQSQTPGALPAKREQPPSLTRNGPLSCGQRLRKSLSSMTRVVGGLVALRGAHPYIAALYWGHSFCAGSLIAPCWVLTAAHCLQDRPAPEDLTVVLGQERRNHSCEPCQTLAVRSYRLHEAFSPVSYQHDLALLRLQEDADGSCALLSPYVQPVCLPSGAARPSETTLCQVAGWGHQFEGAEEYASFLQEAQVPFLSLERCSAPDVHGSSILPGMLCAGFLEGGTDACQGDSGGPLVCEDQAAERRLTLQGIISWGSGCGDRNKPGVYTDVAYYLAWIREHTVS
Description: Inhibition of human factor 12a using H-D-Pro-Phe-Arg-p-nitroanilide as chromogenic substrate assessed as liberation of p-nitroaniline measured every 5 mins for 60 min by multimode plate reader analysis.
In the case of `CC(C)C[C@@H]1NC(=O)[C@H](Cc2ccc(O)cc2)NC(=O)CSC[C@@H](C(N)=O)NC(=O)CNC(=O)CNC(=O)[C@H](CCCNC(=N)N)NC(=O)[C@H](CC(=O)O)NC(=O)[C@H](CCCCN)NC(=O)[C@@H]2CCCN2C(=O)[C@H](C)NC(=O)[C@H](Cc2ccccc2)NC(=O)[C@H](CCCNC(=N)N)NC1=O` ({CH2CO}-YLRFAPKDRGGC-NH2; thioether N-12), the IC50 is 79 µM.

With `CC(C)C[C@@H]1NC(=O)[C@H](Cc2ccccc2C(F)(F)F)NC(=O)CSC[C@@H](C(N)=O)NC(=O)CNC(=O)CNC(=O)[C@H](CCCNC(=N)N)NC(=O)[C@H](CC(=O)O)NC(=O)[C@H](CCCCN)NC(=O)[C@@H]2CCCN2C(=O)[C@H](CCCNC(=N)N)NC(=O)[C@H](Cc2ccccc2)NC(=O)[C@H](CCCNC(=N)N)NC1=O` ({CH2CO}-[Phe(2-CF3)]LRFRPKDRGGC-NH2; thioether N-12), the half-maximal inhibitory concentration (IC50) came out at 120 µM.

For the compound `COc1ccccc1C[C@@H]1NC(=O)[C@H](CCCNC(=N)N)NC(=O)[C@H](CC(C)C)NC(=O)[C@H](Cc2ccc(O)cc2)NC(=O)CSC[C@@H](C(N)=O)NC(=O)CNC(=O)CNC(=O)[C@H](CCCNC(=N)N)NC(=O)[C@H](CC(=O)O)NC(=O)[C@H](CCCCN)NC(=O)[C@@H]2CCCN2C(=O)[C@H](CCCNC(=N)N)NC1=O` ({CH2CO}-YLR[Phe(2-OMe)]RPKDRGGC-NH2; thioether N-12), the half-maximal inhibitory concentration (IC50) is 0.06 µM.

As for `CC(C)C[C@@H]1NC(=O)[C@H](C)NC(=O)CSC[C@@H](C(N)=O)NC(=O)CNC(=O)CNC(=O)[C@H](CCC(N)=O)NC(=O)[C@H](CC(N)=O)NC(=O)[C@H]([C@@H](C)O)NC(=O)[C@@H]2CCCN2C(=O)[C@H](CCCCN)NC(=O)[C@H](CC(C)C)NC(=O)[C@H](CCCNC(=N)N)NC1=O` ({CH2CO}-ALRLKPTNQGGC-NH2; thioether N-12), the IC50 came out at 290 µM.

Take `CC(C)C[C@@H]1NC(=O)[C@H](CC2CCCCC2)NC(=O)CSC[C@@H](C(N)=O)NC(=O)CNC(=O)CNC(=O)[C@H](CCCNC(=N)N)NC(=O)[C@H](CC(=O)O)NC(=O)[C@H](CCCCN)NC(=O)[C@@H]2CCCN2C(=O)[C@H](CCCNC(=N)N)NC(=O)[C@H](Cc2ccccc2)NC(=O)[C@H](CCCNC(=N)N)NC1=O` ({CH2CO}-[Cha]LRFRPKDRGGC-NH2; thioether N-12): the IC50 was found to be 140 µM.

Turning to `CC(C)C[C@@H]1NC(=O)[C@H](Cc2ccc(O)cc2)NC(=O)CSC[C@@H](C(N)=O)NC(=O)CNC(=O)CNC(=O)[C@H](CCCNC(=N)N)NC(=O)[C@H](CC(=O)O)NC(=O)[C@H](CCCCN)NC(=O)[C@@H]2CCCN2C(=O)[C@H](CCCNC(=N)N)NC(=O)[C@H](C)NC(=O)[C@H](CCCNC(=N)N)NC1=O` ({CH2CO}-YLRARPKDRGGC-NH2; thioether N-12), the IC50 was determined as 5.1 µM.

With `CC(C)C[C@@H]1NC(=O)[C@H](CCCNC(=N)N)NC(=O)[C@H](CC(C)C)NC(=O)[C@H](Cc2ccc(O)cc2)NC(=O)CSC[C@@H](C(N)=O)NC(=O)CNC(=O)CNC(=O)[C@H](CCC(N)=O)NC(=O)[C@H](CC(N)=O)NC(=O)[C@H]([C@@H](C)O)NC(=O)[C@@H]2CCCN2C(=O)[C@H](C)NC1=O` ({CH2CO}-YLRLAPTNQGGC-NH2; thioether N-12), the half-maximal inhibitory concentration (IC50) stood at 60 µM.

On to `CC(C)C[C@@H]1NC(=O)[C@H](Cc2ccc(O)cc2)NC(=O)CSC[C@@H](C(N)=O)NC(=O)CNC(=O)CNC(=O)[C@H](CCC(N)=O)NC(=O)[C@H](CC(N)=O)NC(=O)[C@H](C)NC(=O)[C@@H]2CCCN2C(=O)[C@H](CCCCN)NC(=O)[C@H](CC(C)C)NC(=O)[C@H](CCCNC(=N)N)NC1=O` ({CH2CO}-YLRLKPANQGGC-NH2; thioether N-12), for which the half-inhibitory concentration (IC50) is 0.45 µM.

`CC(C)C[C@@H]1NC(=O)[C@H](Cc2ccccc2)NC(=O)CSC[C@@H](C(N)=O)NC(=O)CNC(=O)CNC(=O)[C@H](CCCNC(=N)N)NC(=O)[C@H](CC(=O)O)NC(=O)[C@H](CCCCN)NC(=O)[C@@H]2CCCN2C(=O)[C@H](CCCNC(=N)N)NC(=O)[C@H](Cc2ccccc2)NC(=O)[C@H](CCCNC(=N)N)NC1=O` ({CH2CO}-FLRFRPKDRGGC-NH2; thioether N-12): the concentration for half-maximal inhibition (IC50) is 0.48 µM.

In the case of `CC(C)C[C@@H]1NC(=O)[C@H](C)NC(=O)CSC[C@@H](C(N)=O)NC(=O)CNC(=O)CNC(=O)[C@H](CCCNC(=N)N)NC(=O)[C@H](CC(=O)O)NC(=O)[C@H](CCCCN)NC(=O)[C@@H]2CCCN2C(=O)[C@H](CCCNC(=N)N)NC(=O)[C@H](Cc2ccccc2)NC(=O)[C@H](CCCNC(=N)N)NC1=O` ({CH2CO}-ALRFRPKDRGGC-NH2; thioether N-12), the IC50 worked out at 500 µM.

As to `CC(C)C[C@@H]1NC(=O)[C@H](Cc2ccc(O)cc2)NC(=O)CSC[C@@H](C(N)=O)NC(=O)CNC(=O)CNC(=O)[C@H](CCCNC(=N)N)NC(=O)[C@H](CC(=O)O)NC(=O)[C@H](CCCCN)NC(=O)[C@H](C)NC(=O)[C@H](CCCNC(=N)N)NC(=O)[C@H](Cc2ccccc2)NC(=O)[C@H](CCCNC(=N)N)NC1=O` ({CH2CO}-YLRFRAKDRGGC-NH2; thioether N-12), the IC50 amounted to 0.26 µM.

Consider `CC(C)C[C@@H]1NC(=O)[C@H]([C@@H](C)O)NC(=O)[C@H](Cc2ccccc2)NC(=O)[C@@H](CCCNC(=N)N)NC(=O)[C@@H](CC(C)C)NC(=O)[C@@H](Cc2ccc(O)cc2)NC(=O)CSC[C@@H](C(N)=O)NC1=O`, for which the concentration for half-maximal inhibition (IC50) was 3.8 µM.

As for `Cc1ccc(C[C@@H]2NC(=O)[C@H](CCCNC(=N)N)NC(=O)[C@H](CC(C)C)NC(=O)[C@H](Cc3ccc(O)cc3)NC(=O)CSC[C@@H](C(N)=O)NC(=O)CNC(=O)CNC(=O)[C@H](CCCNC(=N)N)NC(=O)[C@H](CC(=O)O)NC(=O)[C@H](CCCCN)NC(=O)[C@@H]3CCCN3C(=O)[C@H](CCCNC(=N)N)NC2=O)cc1` ({CH2CO}-YLR[Phe(4-Me)]RPKDRGGC-NH2; thioether N-12), the half-maximal inhibitory concentration (IC50) stood at 0.056 µM.

`CC(C)C[C@@H]1NC(=O)[C@H](Cc2ccc(O)cc2)NC(=O)CSC[C@@H](C(N)=O)NC(=O)CNC(=O)[C@H](C)NC(=O)[C@H](CCCNC(=N)N)NC(=O)[C@H](CC(=O)O)NC(=O)[C@H](CCCCN)NC(=O)[C@@H]2CCCN2C(=O)[C@H](CCCNC(=N)N)NC(=O)[C@H](Cc2ccccc2)NC(=O)[C@H](CCCNC(=N)N)NC1=O` ({CH2CO}-YLRFRPKDRAGC-NH2; thioether N-12): the IC50 was found to be 27 µM.

For `CC(C)C[C@@H]1NC(=O)[C@H](Cc2ccc(O)cc2)NC(=O)CSC[C@@H](C(N)=O)NC(=O)CNC(=O)[C@H](C)NC(=O)[C@H](CCC(N)=O)NC(=O)[C@H](CC(N)=O)NC(=O)[C@H]([C@@H](C)O)NC(=O)[C@@H]2CCCN2C(=O)[C@H](CCCCN)NC(=O)[C@H](CC(C)C)NC(=O)[C@H](CCCNC(=N)N)NC1=O` ({CH2CO}-YLRLKPTNQAGC-NH2; thioether N-12), the 50% inhibitory concentration (IC50) was 21 µM.

As for `CC(C)C[C@@H]1NC(=O)[C@H](Cc2ccncc2)NC(=O)CSC[C@@H](C(N)=O)NC(=O)CNC(=O)CNC(=O)[C@H](CCCNC(=N)N)NC(=O)[C@H](CC(=O)O)NC(=O)[C@H](CCCCN)NC(=O)[C@@H]2CCCN2C(=O)[C@H](CCCNC(=N)N)NC(=O)[C@H](Cc2ccccc2)NC(=O)[C@H](CCCNC(=N)N)NC1=O` ({CH2CO}-[4Pal]LRFRPKDRGGC-NH2; thioether N-12), the IC50 came to 12 µM.

`CC(C)C[C@@H]1NC(=O)[C@H](Cc2ccc(O)cc2)NC(=O)CSC[C@@H](C(N)=O)NC(=O)CNC(=O)CNC(=O)[C@H](CCC(N)=O)NC(=O)[C@H](CC(N)=O)NC(=O)[C@H]([C@@H](C)O)NC(=O)[C@H](C)NC(=O)[C@H](CCCCN)NC(=O)[C@H](CC(C)C)NC(=O)[C@H](CCCNC(=N)N)NC1=O` ({CH2CO}-YLRLKATNQGGC-NH2; thioether N-12): the IC50 turned out to be 2.3 µM.

As to `COc1ccc(C[C@@H]2NC(=O)CSC[C@@H](C(N)=O)NC(=O)CNC(=O)CNC(=O)[C@H](CCCNC(=N)N)NC(=O)[C@H](CC(=O)O)NC(=O)[C@H](CCCCN)NC(=O)[C@@H]3CCCN3C(=O)[C@H](CCCNC(=N)N)NC(=O)[C@H](Cc3ccccc3)NC(=O)[C@H](CCCNC(=N)N)NC(=O)[C@H](CC(C)C)NC2=O)cc1` ({CH2CO}-Y(Me)LRFRPKDRGGC-NH2; thioether N-12), the half-maximal inhibitory concentration (IC50) stood at 0.53 µM.

As to `CC(C)C[C@@H]1NC(=O)[C@H](Cc2cccc(F)c2)NC(=O)CSC[C@@H](C(N)=O)NC(=O)CNC(=O)CNC(=O)[C@H](CCCNC(=N)N)NC(=O)[C@H](CC(=O)O)NC(=O)[C@H](CCCCN)NC(=O)[C@@H]2CCCN2C(=O)[C@H](CCCNC(=N)N)NC(=O)[C@H](Cc2ccccc2)NC(=O)[C@H](CCCNC(=N)N)NC1=O` ({CH2CO}-[Phe(3-F)]LRFRPKDRGGC-NH2; thioether N-12), the half-inhibitory concentration (IC50) stood at 0.65 µM.

In the case of `CC(C)C[C@@H]1NC(=O)[C@H](Cc2ccc(O)cc2)NC(=O)CSC[C@@H](C(N)=O)NC(=O)CNC(=O)CNC(=O)[C@H](CCCNC(=N)N)NC(=O)[C@H](C)NC(=O)[C@H](CCCCN)NC(=O)[C@@H]2CCCN2C(=O)[C@H](CCCNC(=N)N)NC(=O)[C@H](Cc2ccccc2)NC(=O)[C@H](CCCNC(=N)N)NC1=O` ({CH2CO}-YLRFRPKARGGC-NH2; thioether N-12), the half-inhibitory concentration (IC50) stood at 0.05 µM.

Take `CC(C)C[C@@H]1NC(=O)[C@H](Cc2ccc(O)cc2)NC(=O)CSC[C@@H](C(N)=O)NC(=O)CNC(=O)CNC(=O)[C@H](CCCNC(=N)N)NC(=O)[C@H](CC(=O)O)NC(=O)[C@H](CCCCN)NC(=O)[C@@H]2CCCN2C(=O)[C@H](CCCNC(=N)N)NC(=O)[C@H](Cc2ccccc2C(F)(F)F)NC(=O)[C@H](CCCNC(=N)N)NC1=O` ({CH2CO}-YLR[Phe(2-CF3)]RPKDRGGC-NH2; thioether N-12): the IC50 worked out at 0.042 µM.
